Source: ChEMBL document CHEMBL1201862, “PubChem BioAssay data set” (2004)
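Results reflect a 48-hour exposure of cells in 96-well plates to compound at five concentrations. GI50 marks 50% less growth.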 The source made the active and inactive calls. No stated cut-off is given here; in the data, active = GI50 up to about 1.1 µM and inactive = higher.

What was measured:
Test in all cases: inhibition of tumour cell growth, NCI panel, 48 h
786-0 = system: 786-0
A498 = system: A498
A549 = system: A549
ACHN = system: ACHN
CAKI-1 = system: CAKI-1
CCRF-CEM = system: CCRF-CEM
COLO 205 = system: COLO 205
DU-145 = system: DU-145
EKVX = system: EKVX
HCC 2998 = system: HCC 2998
HCT-116 = system: HCT-116
HCT-15 = system: HCT-15
HL-60 = system: HL-60
HOP-62 = system: HOP-62
HOP-92 = system: HOP-92
HT-29 = system: HT-29
Hs-578T = system: Hs-578T
IGROV-1 = system: IGROV-1
K562 = system: K562
KM12 = system: KM12
LOX IMVI = system: LOX IMVI
M14 = system: M14
MCF7 = system: MCF7
MDA-MB-435 = system: MDA-MB-435
MDA-N = system: MDA-N
MOLT-4 = system: MOLT-4
NCI-H226 = system: NCI-H226
NCI-H23 = system: NCI-H23
NCI-H460 = system: NCI-H460
NCI-H522 = system: NCI-H522
NCI/ADR-RES = system: NCI/ADR-RES
OVCAR-3 = system: OVCAR-3
OVCAR-5 = system: OVCAR-5
OVCAR-8 = system: OVCAR-8
RPMI-8226 = system: RPMI-8226
RXF 393 = system: RXF 393
SF-268 = system: SF-268
SF-295 = system: SF-295
SF-539 = system: SF-539
SK-MEL-5 = system: SK-MEL-5
SK-OV-3 = system: SK-OV-3
SN12C = system: SN12C
SNB-75 = system: SNB-75
SR = system: SR
SW-620 = system: SW-620
T47D = system: T47D
TK-10 = system: TK-10
UACC-257 = system: UACC-257
UACC-62 = system: UACC-62
UO-31 = system: UO-31
MDA-MB-231 = system: MDA-MB-231
Malme-3M = system: Malme-3M
PC-3 = system: PC-3
SK-MEL-2 = system: SK-MEL-2
OVCAR-4 = system: OVCAR-4
SK-MEL-28 = system: SK-MEL-28
SNB-19 = system: SNB-19
U-251 = system: U-251

## CC(C)C1CC=NN1C(=O)OC(C)(C)C (configuration not stated)
786-0
  GI50: > 100 µM (inactive)
A498
  GI50: > 100 µM (inactive)
A549
  GI50: > 100 µM (inactive)
ACHN
  GI50: > 100 µM (inactive)
CAKI-1
  GI50: > 100 µM (inactive)
CCRF-CEM
  GI50: > 100 µM (inactive)
COLO 205
  GI50: > 100 µM (inactive)
DU-145
  GI50: > 100 µM (inactive)
EKVX
  GI50: > 100 µM (inactive)
HCC 2998
  GI50: > 100 µM (inactive)
HCT-116
  GI50: > 100 µM (inactive)
HCT-15
  GI50: > 100 µM
HL-60
  GI50: > 100 µM (inactive)
HOP-62
  GI50: > 100 µM (inactive)
HOP-92
  GI50: > 100 µM (inactive)
HT-29
  GI50: > 100 µM (inactive)
Hs-578T
  GI50: > 100 µM (inactive)
IGROV-1
  GI50: > 100 µM (inactive)
K562
  GI50: > 100 µM (inactive)
KM12
  GI50: > 100 µM (inactive)
LOX IMVI
  GI50: > 100 µM (inactive)
M14
  GI50: > 100 µM (inactive)
MCF7
  GI50: > 100 µM (inactive)
MDA-MB-435
  GI50: > 100 µM (inactive)
MDA-N
  GI50: > 100 µM (inactive)
MOLT-4
  GI50: > 100 µM (inactive)
NCI-H226
  GI50: > 100 µM (inactive)
NCI-H23
  GI50: > 100 µM (inactive)
NCI-H460
  GI50: > 100 µM (inactive)
NCI-H522
  GI50: > 100 µM (inactive)
NCI/ADR-RES
  GI50: > 100 µM (inactive)
OVCAR-3
  GI50: > 100 µM (inactive)
OVCAR-5
  GI50: > 100 µM (inactive)
OVCAR-8
  GI50: > 100 µM (inactive)
RPMI-8226
  GI50: > 100 µM (inactive)
RXF 393
  GI50: > 100 µM (inactive)
SF-268
  GI50: > 100 µM (inactive)
SF-295
  GI50: > 100 µM (inactive)
SF-539
  GI50: > 100 µM (inactive)
SK-MEL-5
  GI50: > 100 µM (inactive)
SK-OV-3
  GI50: > 100 µM (inactive)
SN12C
  GI50: > 100 µM (inactive)
SNB-75
  GI50: > 100 µM (inactive)
SR
  GI50: > 100 µM (inactive)
SW-620
  GI50: > 100 µM (inactive)
T47D
  GI50: > 100 µM (inactive)
TK-10
  GI50: > 100 µM (inactive)
UACC-257
  GI50: > 100 µM (inactive)
UACC-62
  GI50: > 100 µM (inactive)
UO-31
  GI50: > 100 µM (inactive)

## CC(C)(C)[Si](C)(C)OCC1OC(n2cc(I)c(N)nc2=O)C(O[Si](C)(C)C(C)(C)C)C1O[Si](C)(C)C(C)(C)C (configuration not stated)
786-0
  GI50: 1.99 µM (inactive)
A549
  GI50: 6.58 µM (inactive)
ACHN
  GI50: 10.2 µM (inactive)
COLO 205
  GI50: 16.1 µM (inactive)
DU-145
  GI50: 13.3 µM (inactive)
EKVX
  GI50: 18.6 µM (inactive)
HCT-116
  GI50: 9.42 µM (inactive)
HCT-15
  GI50: 18.6 µM
HOP-62
  GI50: 14.5 µM (inactive)
HOP-92
  GI50: 19.1 µM (inactive)
HT-29
  GI50: 5.26 µM (inactive)
Hs-578T
  GI50: 11.4 µM (inactive)
IGROV-1
  GI50: 5.73 µM (inactive)
LOX IMVI
  GI50: 5.43 µM (inactive)
M14
  GI50: 5.04 µM (inactive)
MDA-MB-231
  GI50: 13.3 µM (inactive)
MDA-N
  GI50: 12.2 µM (inactive)
MOLT-4
  GI50: 2.5 µM (inactive)
Malme-3M
  GI50: 11.3 µM (inactive)
NCI-H460
  GI50: 7.19 µM (inactive)
NCI-H522
  GI50: 3.56 µM (inactive)
NCI/ADR-RES
  GI50: 34.1 µM (inactive)
OVCAR-3
  GI50: 10.5 µM (inactive)
OVCAR-8
  GI50: 12.5 µM (inactive)
PC-3
  GI50: 3.4 µM (inactive)
SF-268
  GI50: 12.7 µM (inactive)
SF-295
  GI50: 3.16 µM (inactive)
SK-MEL-2
  GI50: 5.02 µM (inactive)
SK-MEL-5
  GI50: 10.4 µM (inactive)
SK-OV-3
  GI50: 15.5 µM (inactive)
SN12C
  GI50: 8.28 µM (inactive)
SNB-75
  GI50: 14.3 µM (inactive)
SR
  GI50: 5.37 µM (inactive)
SW-620
  GI50: 4.58 µM (inactive)
T47D
  GI50: > 10 µM (inactive)
UACC-257
  GI50: 11.5 µM (inactive)
UACC-62
  GI50: 10.3 µM (inactive)

## CCOP(=O)(O)C(C)(C)NC
786-0
  GI50: > 100 µM (inactive)
A498
  GI50: > 100 µM (inactive)
A549
  GI50: > 100 µM (inactive)
ACHN
  GI50: > 100 µM (inactive)
CAKI-1
  GI50: > 10 µM (inactive)
CCRF-CEM
  GI50: > 100 µM (inactive)
COLO 205
  GI50: > 100 µM (inactive)
DU-145
  GI50: > 100 µM (inactive)
EKVX
  GI50: > 100 µM (inactive)
HCC 2998
  GI50: > 100 µM (inactive)
HCT-116
  GI50: > 100 µM (inactive)
HCT-15
  GI50: > 100 µM
HL-60
  GI50: > 100 µM (inactive)
HOP-62
  GI50: > 100 µM (inactive)
HOP-92
  GI50: > 100 µM (inactive)
HT-29
  GI50: > 100 µM (inactive)
Hs-578T
  GI50: > 100 µM (inactive)
IGROV-1
  GI50: > 100 µM (inactive)
K562
  GI50: > 100 µM (inactive)
KM12
  GI50: > 100 µM (inactive)
LOX IMVI
  GI50: > 100 µM (inactive)
M14
  GI50: > 100 µM (inactive)
MDA-MB-231
  GI50: > 100 µM (inactive)
MDA-MB-435
  GI50: > 100 µM (inactive)
MDA-N
  GI50: > 100 µM (inactive)
MOLT-4
  GI50: > 100 µM (inactive)
Malme-3M
  GI50: > 100 µM (inactive)
NCI-H226
  GI50: > 100 µM (inactive)
NCI-H23
  GI50: > 100 µM (inactive)
NCI-H460
  GI50: > 100 µM (inactive)
NCI-H522
  GI50: > 100 µM (inactive)
NCI/ADR-RES
  GI50: > 100 µM (inactive)
OVCAR-3
  GI50: > 100 µM (inactive)
OVCAR-4
  GI50: > 100 µM (inactive)
OVCAR-5
  GI50: > 100 µM (inactive)
OVCAR-8
  GI50: > 100 µM (inactive)
PC-3
  GI50: > 100 µM (inactive)
RPMI-8226
  GI50: > 100 µM (inactive)
RXF 393
  GI50: > 100 µM (inactive)
SF-268
  GI50: > 100 µM (inactive)
SF-295
  GI50: > 100 µM (inactive)
SF-539
  GI50: > 100 µM (inactive)
SK-MEL-28
  GI50: > 100 µM (inactive)
SK-MEL-2
  GI50: > 100 µM (inactive)
SK-MEL-5
  GI50: > 100 µM (inactive)
SK-OV-3
  GI50: > 100 µM (inactive)
SN12C
  GI50: > 100 µM (inactive)
SNB-19
  GI50: > 100 µM (inactive)
SW-620
  GI50: > 100 µM (inactive)
T47D
  GI50: > 100 µM (inactive)
TK-10
  GI50: > 100 µM (inactive)
U-251
  GI50: > 100 µM (inactive)
UACC-257
  GI50: > 100 µM (inactive)
UACC-62
  GI50: > 100 µM (inactive)
UO-31
  GI50: > 100 µM (inactive)

## CN(C)Cc1cc(C(=O)/C=C/c2ccc(Br)cc2)cc(CN(C)C)c1O
786-0
  GI50: 5.28 µM (inactive)
A498
  GI50: 14.3 µM (inactive)
A549
  GI50: 8.22 µM (inactive)
ACHN
  GI50: 3.6 µM (inactive)
CAKI-1
  GI50: 2.28 µM (inactive)
CCRF-CEM
  GI50: 3.24 µM (inactive)
COLO 205
  GI50: 1.67 µM (inactive)
DU-145
  GI50: 12.6 µM (inactive)
EKVX
  GI50: 13.2 µM (inactive)
HCC 2998
  GI50: 13.7 µM (inactive)
HCT-116
  GI50: 6.14 µM (inactive)
HCT-15
  GI50: 11.8 µM
HL-60
  GI50: 3.4 µM (inactive)
HOP-62
  GI50: 4.33 µM (inactive)
HOP-92
  GI50: 3.33 µM (inactive)
HT-29
  GI50: 3.2 µM (inactive)
Hs-578T
  GI50: 18.7 µM (inactive)
IGROV-1
  GI50: 11.7 µM (inactive)
K562
  GI50: 2.43 µM (inactive)
KM12
  GI50: 2.16 µM (inactive)
LOX IMVI
  GI50: 1.99 µM (inactive)
M14
  GI50: 4.79 µM (inactive)
MCF7
  GI50: 6.61 µM (inactive)
MDA-MB-231
  GI50: 3.21 µM (inactive)
MDA-MB-435
  GI50: 14.3 µM (inactive)
MDA-N
  GI50: 2.22 µM (inactive)
MOLT-4
  GI50: 3.91 µM (inactive)
Malme-3M
  GI50: 16.6 µM (inactive)
NCI-H226
  GI50: 17.3 µM (inactive)
NCI-H23
  GI50: 15.7 µM (inactive)
NCI-H460
  GI50: 7.16 µM (inactive)
NCI-H522
  GI50: 3.93 µM (inactive)
NCI/ADR-RES
  GI50: 16.7 µM (inactive)
OVCAR-3
  GI50: 3.24 µM (inactive)
OVCAR-4
  GI50: 7.46 µM (inactive)
OVCAR-5
  GI50: 19.3 µM (inactive)
OVCAR-8
  GI50: 4.03 µM (inactive)
PC-3
  GI50: 1.67 µM (inactive)
RPMI-8226
  GI50: 4.74 µM (inactive)
RXF 393
  GI50: 2.05 µM (inactive)
SF-268
  GI50: 18.2 µM (inactive)
SF-295
  GI50: 5.58 µM (inactive)
SF-539
  GI50: 14.3 µM (inactive)
SK-MEL-28
  GI50: 12.2 µM (inactive)
SK-MEL-5
  GI50: 10.7 µM (inactive)
SN12C
  GI50: 2.84 µM (inactive)
SNB-19
  GI50: 12.8 µM (inactive)
SNB-75
  GI50: 11.3 µM (inactive)
SR
  GI50: 5.85 µM (inactive)
SW-620
  GI50: 4.25 µM (inactive)
T47D
  GI50: 15.9 µM (inactive)
TK-10
  GI50: 13 µM (inactive)
U-251
  GI50: 12.9 µM (inactive)
UACC-257
  GI50: 6.53 µM (inactive)
UO-31
  GI50: 1.82 µM (inactive)
